PubChem BioAssay (NCI)
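Compound exposure: 48 hours, 5 concentrations, 96-well plates. GI50: concentration for 50% inhibition of growth. TGI: concentration producing complete growth inhibition.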

Assays:
Test in all cases: NCI tumour cell line growth inhibition, 48 h
[1] = test system: 786-0 renal
[2] = test system: A498 renal
[3] = test system: A549 NSCLC
[4] = test system: ACHN renal
[5] = test system: BT-549 breast
[6] = test system: CAKI-1 renal
[7] = test system: CCRF-CEM leukemia
[8] = test system: COLO 205 colon
[9] = test system: DU-145 prostate
[10] = test system: EKVX NSCLC
[11] = test system: HCC-2998 colon
[12] = test system: HCT-116 colon
[13] = test system: HCT-15 colon
[14] = test system: HL-60(TB) leukemia
[15] = test system: HOP-62 NSCLC
[16] = test system: HOP-92 NSCLC
[17] = test system: HS 578T breast
[18] = test system: HT29 colon
[19] = test system: IGROV1 ovarian
[20] = test system: K-562 leukemia
[21] = test system: KM12 colon
[22] = test system: LOX IMVI melanoma
[23] = test system: M14 melanoma
[24] = test system: MALME-3M melanoma
[25] = test system: MCF7 breast
[26] = test system: MDA-MB-231 breast
[27] = test system: MDA-MB-435
[28] = test system: MOLT-4 leukemia
[29] = test system: NCI-H226 lung
[30] = test system: NCI-H23 lung
[31] = test system: NCI-H460 lung
[32] = test system: NCI-H522 lung
[33] = test system: NCI/ADR-RES ovarian
[34] = test system: OVCAR-3 ovarian
[35] = test system: OVCAR-4 ovarian
[36] = test system: OVCAR-5 ovarian
[37] = test system: OVCAR-8 ovarian
[38] = test system: PC-3 prostate
[39] = test system: RPMI-8226 leukemia
[40] = test system: RXF 393 renal
[41] = test system: SF-268 CNS
[42] = test system: SF-295 CNS
[43] = test system: SF-539 CNS
[44] = test system: SK-MEL-2 melanoma
[45] = test system: SK-MEL-28 melanoma
[46] = test system: SK-MEL-5 melanoma
[47] = test system: SK-OV-3 ovarian
[48] = test system: SN12C renal
[49] = test system: SNB-19 CNS
[50] = test system: SNB-75 CNS
[51] = test system: SR leukemia
[52] = test system: SW-620 colon
[53] = test system: T-47D breast
[54] = test system: TK-10 renal
[55] = test system: U251 CNS
[56] = test system: UACC-257 melanoma
[57] = test system: UACC-62 melanoma
[58] = test system: UO-31 renal

CCc1nn2c(C)cc(C)nc2c1Cc1ccc(/C=C/CN2CCN(CCOCCOCCN3CCN(C/C=C/c4ccc(Cc5c(CC)nn6c(C)cc(C)nc56)cc4)CC3)CC2)cc1
GI50 [1]: 1.72 µM | TGI [1]: 3.28 µM | GI50 [2]: 5.15 µM | TGI [2]: 9.66 µM | GI50 [3]: 4.25 µM | TGI [3]: 8.78 µM | GI50 [4]: 2.25 µM | TGI [4]: 5.2 µM | GI50 [5]: 4.98 µM | TGI [5]: 9.52 µM | GI50 [6]: 1.59 µM | TGI [6]: 3.35 µM | GI50 [7]: 1.64 µM | TGI [7]: 4.18 µM | GI50 [8]: 1.71 µM | TGI [8]: 3.22 µM | GI50 [9]: 2.88 µM | TGI [9]: 7.21 µM | GI50 [10]: 4.26 µM | TGI [10]: 8.84 µM | GI50 [11]: 1.77 µM | TGI [11]: 3.48 µM | GI50 [12]: 1.63 µM | TGI [12]: 3.16 µM | GI50 [13]: 1.69 µM | TGI [13]: 3.4 µM | GI50 [14]: 1.78 µM | TGI [14]: 3.74 µM | GI50 [15]: 4.63 µM | TGI [15]: 9.44 µM | GI50 [16]: 2.37 µM | TGI [16]: 7.16 µM | GI50 [17]: 5.14 µM | TGI [17]: 12.1 µM | GI50 [18]: 1.66 µM | TGI [18]: 3.26 µM | GI50 [19]: 2.8 µM | TGI [19]: 7.64 µM | GI50 [20]: 1.79 µM | TGI [20]: 4.41 µM | GI50 [21]: 3.28 µM | TGI [21]: 7.96 µM | GI50 [22]: 1.68 µM | TGI [22]: 3.16 µM | GI50 [23]: 1.76 µM | TGI [23]: 3.37 µM | GI50 [24]: 1.73 µM | TGI [24]: 3.23 µM | GI50 [25]: 1.7 µM | TGI [25]: 3.35 µM | GI50 [26]: 1.91 µM | TGI [26]: 4.13 µM | GI50 [27]: 1.75 µM | TGI [27]: 3.26 µM | GI50 [28]: 2.16 µM | TGI [28]: 5.13 µM | GI50 [29]: 5.09 µM | TGI [29]: 10.9 µM | GI50 [30]: 1.86 µM | TGI [30]: 3.65 µM | GI50 [31]: 1.88 µM | TGI [31]: 3.53 µM | GI50 [32]: 1.7 µM | TGI [32]: 3.39 µM | GI50 [33]: 2.74 µM | TGI [33]: 7.88 µM | GI50 [34]: 2.58 µM | TGI [34]: 7.12 µM | GI50 [35]: 1.8 µM | TGI [35]: 3.86 µM | GI50 [36]: 4.8 µM | TGI [36]: 9.34 µM | GI50 [37]: 1.92 µM | TGI [37]: 3.92 µM | GI50 [38]: 2.81 µM | TGI [38]: 7.76 µM | GI50 [39]: 1.87 µM | TGI [39]: 4.33 µM | GI50 [40]: 1.68 µM | TGI [40]: 3.97 µM | GI50 [41]: 2.94 µM | TGI [41]: 8.26 µM | GI50 [42]: 2.95 µM | TGI [42]: 7.6 µM | GI50 [43]: 1.72 µM | TGI [43]: 3.19 µM | GI50 [44]: 5.35 µM | TGI [44]: 9.95 µM | GI50 [45]: 1.75 µM | TGI [45]: 3.2 µM | GI50 [46]: 1.87 µM | TGI [46]: 3.52 µM | GI50 [47]: 5.75 µM | TGI [47]: 10.5 µM | GI50 [48]: 1.86 µM | TGI [48]: 3.99 µM | GI50 [49]: 2.94 µM | TGI [49]: 7.95 µM | GI50 [50]: 4.09 µM | TGI [50]: 8.18 µM | GI50 [51]: 1.81 µM | TGI [51]: 4.6 µM | GI50 [52]: 1.7 µM | TGI [52]: 3.31 µM | GI50 [53]: 1.74 µM | TGI [53]: 3.74 µM | GI50 [54]: 5.72 µM | TGI [54]: 10.4 µM | GI50 [55]: 1.85 µM | TGI [55]: 3.76 µM | GI50 [56]: 1.74 µM | TGI [56]: 3.4 µM | GI50 [57]: 1.74 µM | TGI [57]: 3.3 µM | GI50 [58]: 1.42 µM | TGI [58]: 3.05 µM
